According to US20040235785A1, “Potentiator of antitumoral agents in the treatment of cancer” (priority 2001, published 2004):

Assays:
[1] = tested on: MCF-7 human breast adenocarcinoma cell line; assay: Maximal tolerated dose in vitro (resazurin reduction test), MCF-7; format: cell-based; settings: MCF-7, 48 h
Excerpt: (§1) The human cell lines breast cancer adenocarcinoma MCF-7, prostatic adenocarcinoma PC-3, lung carcinoma A-549 and colon adenocarcinoma DLD-1 together with the mouse cell line L-929 (fibrobast) were obtained from the European Collection of Cell Cultures (ECACC, Salisbury, United Kingdom). Normal human fibroblasts were purchased from Biopredic International (Rennes, France). The M4BEU human melanoma cell line was generously supplied by Dr. J F Doré (Institut National de la Santé et de la Recherche Médicale-INSERM, Unit 218, Lyon, France). All the cell lines were grown in minimum essential medium with Earle's salts (Gibco-BRL, Paisley, Scotland) supplemented with 10% fetal calf serum (Sigma-Aldrich), 1×solution of vitamins (Gibco-BRL), 1 mM sodium pyruvate (Gibco-BRL), 1×non-essential amino acids (Gibco-BRL) and 2 mg of gentamicin base (Gibco-BRL). Cells were cultured in a humidified atmosphere at 37° C. in 5% CO2.

[2] = tested on: PC-3 human prostatic adenocarcinoma cell line; assay: Maximal tolerated dose in vitro (resazurin reduction test), PC-3; format: cell-based; settings: PC-3, 48 h
Excerpt: as §1

[3] = tested on: A-549 human lung carcinoma cell line; assay: Maximal tolerated dose in vitro (resazurin reduction test), A-549; format: cell-based; settings: A-549, 48 h
Excerpt: as §1

[4] = tested on: DLD-1 human colon adenocarcinoma cell line; assay: Maximal tolerated dose in vitro (resazurin reduction test), DLD-1; format: cell-based; settings: DLD-1, 48 h
Excerpt: as §1

[5] = tested on: M4BEU human melanoma cell line; assay: Maximal tolerated dose in vitro (resazurin reduction test), M4BEU; format: cell-based; settings: 48 h
Excerpt: as §1

normal human fibroblasts = assay: Maximal tolerated dose in vitro (resazurin reduction test), human fibroblast; format: cell-based; settings: 48 h
Excerpt: as §1

[6] = tested on: L-929 mouse subcutaneous connective tissue cell line; assay: Maximal tolerated dose in vitro (resazurin reduction test), L-929; format: cell-based; settings: L-929, 48 h
Excerpt: as §1

[7] = tested on: normal and cancerous cell lines; assay: In vitro toxicity / MTD, stated overall for the cell lines tested; format: cell-based
Procedure: The screening of terpene potentiators in accordance with the present invention is carried out by the evaluation of several parameters including: i) the cytotoxicity (maximal tolerated dose); and iii) the effect on the intracellular glutathione content; and iv) the synergism in combination with antitumor agents. Briefly, the cytotoxicity or the cell growth inhibition induced by the terpenes is evaluated on various cell lines in order to determine the maximal tolerated dose (MTD) or non-toxic dose. […] The cell growth is measured by the fluorescence induced by the metabolic transformation of resazurin™ in resorufin™, which is proportional to living cells (see materials and methods). […] Moreover, β-caryophyllene is not toxic in mice at >500 mg/kg. It is shown herein that β-caryophyllene is having a synergistic action on the treatment of cancer when used in combination with antitumoral agents such as paclitaxel. To assess the synergistic effect of terpenes such as β-caryophyllene, the cancer cells are treated with growing concentrations of antitumoral agents (paclitaxel) with or without terpene (β-caryophyllene).
The in vitro toxicity of β-caryophyllene has been evaluated from 5 cell lines: human adenocarcinoma, MCF-7; human prostatic adenocarcinoma, PC-3; human lung carcinoma, A-549 and human colon adenocarcinoma, DLD-1 and from human and mouse fibroblasts.
Cell survival has been evaluated after receiving an increasing dose of β-caryophyllene between 6.25 and 800 µM. It is shown in table I that β-caryophyllene is not toxic in vitro in a dose less than […].

MCF-7 cells = assay: Synergistic effect in combination with paclitaxel, MCF-7; format: cell-based, human; settings: MCF-7, β-caryophyllene combined with paclitaxel
Procedure: The resazurin reduction test (RRT) was carried out according to the protocol as described by O'Brien et al. Briefly, plates were rinsed by 200 μl PBS (37° C., Gibco) at 37° C. using an automatic microplate washer (Cell Wash™, Labsystems, Helsinki, Finland) and emptied by overturning on absorbent toweling. Then, 150 μl of a 25μg/ml solution of resazurin in MEM without Phenol red was added in each well using an automatic microvolume dispenser (Multidrop 384™ Labsystems). The plates were incubated 1 h at 37° C. in a humidified atmosphere with 5% of CO2 for fluorescence development by living cells. Fluorescence was then measured on the automated 96-well plate reader Fluoroskan Ascent FL™ (Labsystems) using an excitation wavelength of 530 nm and an emission one of 590 nm. The fluorescence is proportional to the number of living cells in the well.
Briefly, the cells were plated at a density of 5×10^3 cells per well in 96-well microplates (Nunclon™, Nunc) in 100 μl of culture medium and were allowed to adhere for 16 h before treatment. […] The proliferation of tumour cells was assessed using resazurin reduction test as described above. The synergistic effect of β-caryophyllene was determined by the comparison between the percentage of cells growth inhibition induced by the paclitaxel used alone and the one induced by the combination of paclitaxel and β-caryophyllene.

[8] = studies performed by the National Cancer Institute; cited from earlier work

C=C1CC/C=C(\C)CC[C@@H]2[C@@H]1CC2(C)C [β-caryophyllene]
MTD (maximal tolerated dose or maximal no toxic dose) [1]: >800 µM
MTD (maximal tolerated dose or maximal no toxic dose) [2]: >800 µM
MTD (maximal tolerated dose or maximal no toxic dose) [3]: >800 µM
MTD (maximal tolerated dose or maximal no toxic dose) [4]: >800 µM
MTD (maximal tolerated dose or maximal no toxic dose) [5]: >800 µM
MTD (maximal tolerated dose or maximal no toxic dose) (normal human fibroblasts): >800 µM
MTD (maximal tolerated dose or maximal no toxic dose) [6]: >800 µM
cytotoxicity against normal and cancerous cell lines tested in vitro [7]: does not induce cytotoxicity
in vitro toxicity (cell survival) ([7]; dose less than 800, doses tested between 6.25 and 800): not toxic
MTD (higher concentration that does not induce cell growth inhibition) ([7]; various cell lines, stated overall): greater than 800 μM
increase of cell growth inhibition induced by paclitaxel (MCF-7 cells): about 40%
mutagenicity [8]: not mutagenic
